Tested on: participants with chronic migraine
Assay: Same phase 3 study: patient-reported outcomes (MSQ v2.1, AIM-D, HIT-6, WPAI, PGI-C, treatment satisfaction, EQ-5D-5L)
Type: in vivo, human
Settings: for Change from Baseline in HIT-6 total score at Week 12, LS Mean / Change from Baseline in HIT-6 total score at Week 12, LSMD Atogepant vs. Placebo / Change from Baseline in MSQ v2.1 Role Function - Restrictive Domain Score at Week 12, LS Mean / Change from Baseline in MSQ v2.1 Role Function - Restrictive Domain Score at Week 12, LSMD Atogepant vs. Placebo: Off-Treatment Hypothetical Estimand population
Source text: The MSQ v2.1 is a 14-item questionnaire designed to measure health-related quality of life impairments attributed to migraine in the past 4 weeks. It is divided into three domains: Role Function Restrictive assesses how migraines limit one's daily social and work-related activities; Role Function Preventive assesses how migraines prevent these activities; and the Emotional Function domain assesses the emotions associated with migraine. Participants respond to items using a 6-point scale ranging from “none of the time” to “all of the time.” Raw dimension scores are computed as a sum of item responses and rescaled to a 0 to 100 scale, where higher scores indicate better quality of life.
The AIM-D (Activity Impairment in Migraine — Diary) is an 11-function daily diary measure that assesses the impact of migraine. It is comprised of two domains that evaluate performance of daily activities (PDA: 7 items) and physical impairment (PI: 4 items). […] The AIM-D was developed as an electronic daily diary with the same set of questions administered in headache and non-headache versions. Raw domain scores are rescaled to a 0 to 100 scale, where higher scores indicate greater impact of migraine.
The HIT-6 (Headache Impact Test) is a 6-question assessment used to measure the impact headaches have on a participant's ability to function on the job, at school, at home, and in social situations. It assesses the effect that headaches have on normal daily life and the participant's ability to function. Responses are based on frequency using a 5-point scale ranging from “never” to “always.” The HIT-6 total score, which ranges from 36 to 78, is the sum of the responses—each of which is assigned a score ranging from 6 points (never) to 13 points (always)—with higher scores indicating larger impact due to headache. Yang et al., “Validation of the Headache Impact Test (HIT-6™) across episodic and chronic migraine”, Cephalalgia, 2011 February; 31(3): 357−367.
Secondary endpoints included change from baseline in mean monthly headache days across the 12 week treatment period; change from baseline in mean monthly acute medication use days across the 12-week treatment period; at least a 50% reduction in mean monthly migraine days across the 12-week treatment period; change from baseline in MSQ v2.1 Role Function-Restrictive domain score at week 12; change from baseline in mean AIM-D monthly functioning and activity impairment score across the 12-week treatment period; and change from baseline in HIT-6 total score at week 12.
FIG. 8 and Table 5 show the change from baseline in AIM-D Performance of Daily Activities at Weeks 1-4, 5-8, and 9-12 and across 12 weeks. FIG. 9 and Table 6 show change from baseline in WPAI Overall Work Productivity Loss at Weeks 1-4, 5-8, and 9-12. […] A graphical approach with weighted Bonferroni test procedure was used to control the overall type I error rate at the 2-sided α=0.05 level for key secondary endpoint comparisons between each atogepant dose vs placebo. For exploratory endpoints, nominal P values were provided without adjusting for multiplicity.
Patient-reported outcome (PRO) measures included the Performance of Daily Activities (PDA) and Physical Impairment (PI) domains of the Activity Impairment in Migraine-Diary (AIM-D), and the 5-level European Quality of Life-5 Dimension (EQ-5D-5L) descriptive system and visual analogue scale (VAS), implemented via daily diary. Scores in each domain were transformed to a 0-100 scale with higher scores indicating a greater burden from migraine. Changes in PDA and PI scores and the proportion of participants achieving clinically meaningful within-patient change in the PDA domain (≥12.5 points) and PI domain (≥10 points) were compared between participants who received atogepant vs placebo. EQ-5D-5L measures 5 dimensions of QOL, including mobility, self-care, usual activities, pain/discomfort, and anxiety/depression. […]

[1] = 30 mg BID, week 12, mITT, listed as atogepant
[2] = 60 mg QD, week 12, mITT, listed as atogepant
[3] = 60 mg, within the first 2 weeks
[4] = both doses (30 mg BID, 60 mg QD), all time points

Structure (SMILES): C[C@@H]1[C@H](c2c(F)ccc(F)c2F)C[C@H](NC(=O)c2cnc3c(c2)C[C@@]2(C3)C(=O)Nc3ncccc32)C(=O)N1CC(F)(F)F [Atogepant, (S)—N—((3S,5S,6R)-6-methyl-2-oxo-1-(2,2,2-trifluoroethyl)-5-(2,3,6-trifluorophenyl)piperidin-3-yl)-2′-oxo-1′,2′,5,7-tetrahydrospiro[cyclopenta[b]pyridine-6,3′-pyrrolo[2,3-b]pyridine]-3-carboxamide]
- Change from Baseline in HIT-6 total score at Week 12, LS Mean (30 mg BID): −8.47
- Change from Baseline in HIT-6 total score at Week 12, LSMD Atogepant vs. Placebo (30 mg BID): −3.30
- Change from Baseline in MSQ v2.1 Role Function - Restrictive Domain Score at Week 12, LS Mean (30 mg BID): 24.74
- Change from Baseline in MSQ v2.1 Role Function - Restrictive Domain Score at Week 12, LSMD Atogepant vs. Placebo (30 mg BID): 7.43
- Change from Baseline in WPAI Overall Work Productivity Loss, LSMD vs placebo (30 mg BID, Week 4): −12.69
- Change from Baseline in WPAI Overall Work Productivity Loss, LSMD vs placebo (30 mg BID, Week 8): −8.61
- Change from Baseline in AIM-D Performance of Daily Activities, LSMD vs placebo (30 mg BID, Weeks 1-4): −5.44
- Change from Baseline in AIM-D Performance of Daily Activities, LSMD vs placebo (30 mg BID, Weeks 5-8): −4.75
- Change from Baseline in AIM-D Performance of Daily Activities, LSMD vs placebo (30 mg BID, Weeks 9-12): −4.36
- Change from baseline in MSQ v2.1 role function restrictive domain score at week 12, LS Mean (30 mg BID, mITT): 25.15
- Change from baseline in MSQ v2.1 role function restrictive domain score at week 12, LSMD Atogepant vs. Placebo (30 mg BID, mITT): 7.96
- Change from baseline in mean monthly performance of daily activities domain score of the AIM-D across the 12-week treatment period, LS Mean (30 mg BID, mITT): −14.29
- Change from baseline in mean monthly performance of daily activities domain score of the AIM-D across the 12-week treatment period, LSMD Atogepant vs. Placebo (30 mg BID, mITT): −4.85
- Change from baseline in mean monthly physical impairment domain score of the AIM-D across the 12-week treatment period, LS Mean (30 mg BID, mITT): −12.11
- Change from baseline in mean monthly physical impairment domain score of the AIM-D across the 12-week treatment period, LSMD Atogepant vs. Placebo (30 mg BID, mITT): −4.19
- Change from Baseline in WPAI Overall Work Productivity Loss, LSMD vs placebo (30 mg BID, week 12): −7.94
- MSQ v2.1 Emotional Function domain score change from baseline, LSMD vs placebo (30 mg BID, week 12): 6.36
- MSQ v2.1 Role Function-Preventive domain score change from baseline, LSMD vs placebo (30 mg BID, week 12): 8.10
- PGI-C responders (30 mg BID, week 12, mITT): 153/239
- PGI-C responders (much better or very much better), Percentage (30 mg BID, week 12, mITT): 64.0%
- PGI-C responders, OR (95% CI) vs placebo (30 mg BID, week 12, mITT): 3.36 (2.29, 4.94)
- Satisfaction with study medication (satisfied or extremely satisfied), Percentage (30 mg BID, week 12, mITT): 64.6%
- Satisfaction with study medication responders (30 mg BID, week 12, mITT): 148/229
- Satisfaction with study medication, OR (95% CI) vs placebo (30 mg BID, week 12, mITT): 2.67 (1.82, 3.91)
- PGI-C responders (much better or very much better), Percentage [1]: 64.0%
- Satisfaction with study medication (satisfied or extremely satisfied), Percentage [1]: 64.6%
- Change from Baseline in HIT-6 total score at Week 12, LS Mean (60 mg QD): −7.83
- Change from Baseline in HIT-6 total score at Week 12, LSMD Atogepant vs. Placebo (60 mg QD): −2.66
- Change from Baseline in MSQ v2.1 Role Function - Restrictive Domain Score at Week 12, LS Mean (60 mg QD): 23.09
- Change from Baseline in MSQ v2.1 Role Function - Restrictive Domain Score at Week 12, LSMD Atogepant vs. Placebo (60 mg QD): 5.78
- Change from Baseline in WPAI Overall Work Productivity Loss, LSMD vs placebo (60 mg QD, Week 4): −15.26
- Change from Baseline in WPAI Overall Work Productivity Loss, LSMD vs placebo (60 mg QD, Week 8): −11.33
- Change from Baseline in AIM-D Performance of Daily Activities, LSMD vs placebo (60 mg QD, Weeks 1-4): −4.44
- Change from Baseline in AIM-D Performance of Daily Activities, LSMD vs placebo (60 mg QD, Weeks 5-8): −3.59
- Change from Baseline in AIM-D Performance of Daily Activities, LSMD vs placebo (60 mg QD, Weeks 9-12): −2.11
- Change from baseline in MSQ v2.1 role function restrictive domain score at week 12, LS Mean (60 mg QD, mITT): 23.33
- Change from baseline in MSQ v2.1 role function restrictive domain score at week 12, LSMD Atogepant vs. Placebo (60 mg QD, mITT): 6.15
- Change from baseline in mean monthly performance of daily activities domain score of the AIM-D across the 12-week treatment period, LS Mean (60 mg QD, mITT): −12.82
- Change from baseline in mean monthly performance of daily activities domain score of the AIM-D across the 12-week treatment period, LSMD Atogepant vs. Placebo (60 mg QD, mITT): −3.38
- Change from baseline in mean monthly physical impairment domain score of the AIM-D across the 12-week treatment period, LS Mean (60 mg QD, mITT): −10.63
- Change from baseline in mean monthly physical impairment domain score of the AIM-D across the 12-week treatment period, LSMD Atogepant vs. Placebo (60 mg QD, mITT): −2.71
- participants achieving clinically relevant reduction with AIM-D PDA of ≥12.5 (60 mg QD, week 1): 42.9%
- participants achieving clinically relevant reduction with AIM-D PI of ≥10 (60 mg QD, week 1): 43.7%
- AIM-D PDA change from baseline, LSMD vs placebo (60 mg QD, week 1, mITT): −5.83
- AIM-D PI change from baseline, LSMD vs placebo (60 mg QD, week 1, mITT): −4.12
- Change from Baseline in WPAI Overall Work Productivity Loss, LSMD vs placebo (60 mg QD, week 12): −9.64
- MSQ v2.1 Emotional Function domain score change from baseline, LSMD vs placebo (60 mg QD, week 12): 6.81
- MSQ v2.1 Role Function-Preventive domain score change from baseline, LSMD vs placebo (60 mg QD, week 12): 6.86
- PGI-C responders (60 mg QD, week 12, mITT): 130/246
- PGI-C responders (much better or very much better), Percentage (60 mg QD, week 12, mITT): 52.8%
- PGI-C responders, OR (95% CI) vs placebo (60 mg QD, week 12, mITT): 2.16 (1.48, 3.15)
- Satisfaction with study medication (satisfied or extremely satisfied), Percentage (60 mg QD, week 12, mITT): 59.2%
- Satisfaction with study medication responders (60 mg QD, week 12, mITT): 138/233
- Satisfaction with study medication, OR (95% CI) vs placebo (60 mg QD, week 12, mITT): 2.16 (1.49, 3.15)
- PGI-C responders (much better or very much better), Percentage [2]: 52.8%
- Satisfaction with study medication (satisfied or extremely satisfied), Percentage [2]: 59.2%
- EQ-5D-5L VAS score, LSMD vs placebo [3]: 4.47
- mean EQ-5D-5L descriptive system score, LSMD vs placebo [3]: 0.04
- proportion meeting HIT-6 responder criteria (score reduction ≥5 points) vs placebo (all time points and doses, nominal P<0.001): nominally significantly greater
- WPAI activity impairment vs. placebo [4]: Nominally significant improvements
- WPAI presenteeism vs. placebo [4]: Nominally significant improvements
- WPAI absenteeism vs. placebo (both doses (30 mg BID, 60 mg QD), weeks 4 and 12): Nominally significant improvements
- HIT-6 scores vs placebo (both doses, weeks 4 and 8, nominal P<0.001): nominally significant improvements

Reference: patent publication US20230321055A1, “PREVENTIVE TREATMENT OF MIGRAINE” (priority 2022, published 2023)
